In test [1] the test system is Pseudomonas aeruginosa. As to the kind of experiment: Antibacterial activity against Pseudomonas aeruginosa 262-101856 assessed as reduction in bacterial growth by measuring chloramphenicol MIC at 8 ug/ml incubated for 18 hrs in presence of chloramphenicol by broth microdilution assay (reference value: 2048 ug/ml). To be noted: dose 8 µg/ml. Format: functional. On the technique in general: Dilution methods test growth across graded concentrations, often in twofold steps.

In test [2] the test system is Pseudomonas aeruginosa. In words: Antibacterial activity against wild type Pseudomonas aeruginosa PAO1 assessed as reduction in bacterial growth by measuring doxycycline MIC at 0.25 ug/ml incubated for 18 hrs in presence of doxycycline by broth microdilution assay (reference value: 16 ug/ml). Format: functional. To be noted: dose 0.25 µg/ml.
Test [3] deals with Pseudomonas aeruginosa. As to the kind of experiment: Antibacterial activity against Pseudomonas aeruginosa 100036 assessed as reduction in bacterial growth by measuring chloramphenicol MIC at 4 ug/ml incubated for 18 hrs in presence of chloramphenicol by broth microdilution assay (reference value: 1024 ug/ml). The conditions noted are these: dose 4 µg/ml. It is filed as functional.

For test [4], the system named is Pseudomonas aeruginosa. As to the kind of experiment: Antibacterial activity against Pseudomonas aeruginosa 100036 assessed as reduction in bacterial growth by measuring doxycycline MIC at 4 ug/ml incubated for 18 hrs in presence of doxycycline by broth microdilution assay (reference value: 64 ug/ml). To be noted: dose 4 µg/ml. Format: functional.
Test [5] has as its system Pseudomonas aeruginosa. As to the kind of experiment: Antibacterial activity against Pseudomonas aeruginosa 262-101856 assessed as reduction in bacterial growth by measuring doxycycline MIC at 16 ug/ml incubated for 18 hrs in presence of doxycycline by broth microdilution assay (reference value: 1024 ug/ml). Format: functional. The conditions noted are these: dose 16 µg/ml.

The subject of test [6] is Pseudomonas aeruginosa. As to the kind of experiment: Antibacterial activity against Pseudomonas aeruginosa 260-97103 assessed as reduction in bacterial growth by measuring doxycycline MIC at 2 ug/ml incubated for 18 hrs in presence of doxycycline by broth microdilution assay (reference value: 16 ug/ml). Format: functional. To be noted: dose 2 µg/ml.
Test [7] concerns Pseudomonas aeruginosa. As to the kind of experiment: Antibacterial activity against Pseudomonas aeruginosa 264-101354 assessed as potentiation of doxycycline-induced antibacterial activity by measuring doxycycline MIC at 9.8 uM incubated for 18 hrs in presence of doxycycline by broth microdilution assay (reference value: 64 ug/ml). It is filed as functional.
The subject of test [8] is Pseudomonas aeruginosa. As to the kind of experiment: Antibacterial activity against Pseudomonas aeruginosa 100036 assessed as fractional inhibitory concentration index incubated for 18 hrs in presence of tigecycline by broth microdilution assay. It is filed as functional.
The test system of test [9] is Pseudomonas aeruginosa. In words: Potentiation of chloramphenicol-induced antibacterial activity against Pseudomonas aeruginosa 91433 assessed as fold change in chloramphenicol MIC at 9.8 uM incubated for 18 hrs in presence of chloramphenicol by broth microdilution assay relative to control. It is filed as functional.
Test [10] concerns Pseudomonas aeruginosa. In words: Antibacterial activity against Pseudomonas aeruginosa 114228 assessed as fractional inhibitory concentration incubated for 18 hrs in presence of tigecycline by broth microdilution assay. Format: functional.
The test system of test [11] is Pseudomonas aeruginosa. In words: Potentiation of doxycycline-induced antibacterial activity against Pseudomonas aeruginosa PAO750 harboring MexAB-OprM, MexCD-OprJ, MexEF-OprN, Mex JK, MexXY and the OM protein OpmH deletion mutant assessed as fold change in doxycycline MIC at <=9.8 uM incubated for 18 hrs in presence of doxycycline by broth microdilution assay. To be noted: dose microM <=9.8. Format: functional.

For test [12], the system named is Pseudomonas aeruginosa. In words: Antibacterial activity against Pseudomonas aeruginosa 260-97103 infected in Galleria mellonella larvae assessed as survival of larvae at 75 mg/kg treated at 3 hrs post-infection in presence of doxycycline and measured after 18 hrs relative to control. It is filed as functional.
The subject of test [13] is Pseudomonas aeruginosa. As to the kind of experiment: Antibacterial activity against Pseudomonas aeruginosa 91433 assessed as fractional inhibitory concentration index incubated for 18 hrs in presence of rifampicin by broth microdilution assay. Format: functional.
In test [14] the test system is Pseudomonas aeruginosa. In words: Antibacterial activity against Pseudomonas aeruginosa 101243 assessed as fractional inhibitory concentration incubated for 18 hrs in presence of rifampicin by broth microdilution assay. It is filed as functional.
Test [15] concerns Pseudomonas aeruginosa. In words: Antibacterial activity against Pseudomonas aeruginosa 260-97103 infected in Galleria mellonella larvae assessed as survival of larvae at 100 mg/kg treated at 3 hrs post-infection in presence of chloramphenicol and measured after 24 hrs relative to control. Format: functional.
Test [16] concerns Pseudomonas aeruginosa. In words: Potentiation of chloramphenicol-induced bactericidal activity against Pseudomonas aeruginosa PAO1 assessed as reduction in bacterial colonies at 4.9 to 9.8 microM incubated for upto 24 hrs in LB medium in presence of chloramphenicol followed by plating on agar plate and measured after 20 hrs by time-kill assay. The conditions noted are these: dose 4.9-9.8 µM, time hrs <=44. Format: functional, organism-based.

The subject of test [17] is Pseudomonas aeruginosa. As to the kind of experiment: Antibacterial activity against Pseudomonas aeruginosa 101885 assessed as potentiation of doxycycline-induced antibacterial activity by measuring doxycycline MIC at 9.8 uM incubated for 18 hrs in presence of doxycycline by broth microdilution assay (reference value: 64 ug/ml). Format: functional.
Test [18] has as its system Pseudomonas aeruginosa. As to the kind of experiment: Antibacterial activity against Pseudomonas aeruginosa 100036 assessed as potentiation of doxycycline-induced antibacterial activity by measuring doxycycline MIC at 9.8 uM incubated for 18 hrs in presence of doxycycline by broth microdilution assay (reference value: 64 ug/ml). It is filed as functional.
Test [19] deals with Pseudomonas aeruginosa. As to the kind of experiment: Antibacterial activity against Pseudomonas aeruginosa 260-97103 assessed as fractional inhibitory concentration index incubated for 18 hrs in presence of tigecycline by broth microdilution assay. It is filed as functional.
Test [20] has as its system Pseudomonas aeruginosa. As to the kind of experiment: Potentiation of chloramphenicol-induced antibacterial activity against Pseudomonas aeruginosa 101885 assessed as fold change in chloramphenicol MIC at 7.6 uM incubated for 18 hrs in presence of chloramphenicol by broth microdilution assay relative to control. It is filed as functional.
Test [21] concerns Pseudomonas aeruginosa. As to the kind of experiment: Potentiation of doxycycline-induced antibacterial activity against Pseudomonas aeruginosa 264-101354 assessed as fold change in doxycycline MIC at 7.6 uM incubated for 18 hrs in presence of doxycycline by broth microdilution assay relative to control. Format: functional.
The subject of test [22] is Pseudomonas aeruginosa. As to the kind of experiment: Potentiation of doxycycline-induced antibacterial activity against Pseudomonas aeruginosa 101885 assessed as fold change in doxycycline MIC at 7.6 uM incubated for 18 hrs in presence of doxycycline by broth microdilution assay relative to control. It is filed as functional.
Test [23] relates to Klebsiella pneumoniae. In words: Potentiation of doxycycline-induced antibacterial activity against Klebsiella pneumoniae ATCC 16381 assessed as fold change in doxycycline MIC at 7.6 uM incubated for 18 hrs in presence of doxycycline by broth microdilution assay relative to control. Format: functional.
For test [24], the system named is Pseudomonas aeruginosa. In words: Antibacterial activity against Pseudomonas aeruginosa 101885 assessed as potentiation of doxycycline-induced antibacterial activity by measuring doxycycline MIC at 7.6 uM incubated for 18 hrs in presence of doxycycline by broth microdilution assay (reference value: 64 ug/ml). Format: functional.
In test [25] the test system is Pseudomonas aeruginosa. As to the kind of experiment: Antibacterial activity against Pseudomonas aeruginosa 264-101354 assessed as potentiation of doxycycline-induced antibacterial activity by measuring doxycycline MIC at 7.6 uM incubated for 18 hrs in presence of doxycycline by broth microdilution assay (reference value: 64 ug/ml). It is filed as functional.
Test [26] deals with Pseudomonas aeruginosa. As to the kind of experiment: Antibacterial activity against Pseudomonas aeruginosa 259-96918 assessed as potentiation of chloramphenicol-induced antibacterial activity by measuring chloramphenicol MIC at 7.6 uM incubated for 18 hrs in presence of chloramphenicol by broth microdilution assay (reference value: 1024 ug/ml). It is filed as functional.
For test [27], the system named is Pseudomonas aeruginosa. In words: Potentiation of chloramphenicol-induced antibacterial activity against Pseudomonas aeruginosa 264-101354 assessed as fold change in chloramphenicol MIC at 7.6 uM incubated for 18 hrs in presence of chloramphenicol by broth microdilution assay relative to control. Format: functional.
Test [28] deals with Pseudomonas aeruginosa. As to the kind of experiment: Potentiation of chloramphenicol-induced antibacterial activity against Pseudomonas aeruginosa 260-97103 assessed as fold change in chloramphenicol MIC at 7.6 uM incubated for 18 hrs in presence of chloramphenicol by broth microdilution assay relative to control. It is filed as functional.

The structures appear in SMILES notation. Activity calls are given as the source filed them. No cut-off for these calls is given here. Bounds are passed on as bounds.

For orientation: MIC means the least concentration at which growth counts as inhibited. Take `NC[C@H]1O[C@H](O[C@H]2[C@H](O)[C@@H](O[C@H]3O[C@H](CO)[C@@H](O)[C@H](N)[C@H]3O)[C@H](N)C[C@@H]2N)[C@H](N)C[C@@H]1O` [TOBRAMYCIN]: the MIC is 2050 µg/mL in [1] and 8 µg/mL in [2].
On to `CO[C@H]1/C=C/O[C@@]2(C)Oc3c(C)c(O)c4c(O)c(c(/C=N/N5CCN(C)CC5)c(O)c4c3C2=O)NC(=O)/C(C)=C\C=C\[C@H](C)[C@H](O)[C@@H](C)[C@@H](O)[C@@H](C)[C@H](OC(C)=O)[C@@H]1C` [RIFAMPIN], for which the MIC in test [3] turned out to be 1020 µg/mL; in [4], 64 µg/mL; in test [5], 1020 µg/mL; in test [6], 16 µg/mL.
Regarding `CO[C@H]1/C=C/O[C@@]2(C)Oc3c(C)c(O)c4c(O)c(c(/C=N/N5CCN(Cc6cn(CCCCCCO[C@@H]7[C@@H](O[C@H]8O[C@H](CO)[C@@H](O)[C@H](N)[C@H]8O)[C@H](N)C[C@H](N)[C@H]7O[C@H]7O[C@H](CN)[C@@H](O)C[C@H]7N)nn6)CC5)c(O)c4c3C2=O)NC(=O)/C(C)=C\C=C\[C@H](C)[C@H](O)[C@@H](C)[C@@H](O)[C@@H](C)[C@H](OC(C)=O)[C@@H]1C.Cl.Cl.Cl.Cl.Cl`, the MIC amounted to 0.125 µg/mL in test [7], 1 µg/mL in test [17] and 1 µg/mL in test [18]. The entries for the “fractional inhibitory concentration index (FICI)” value in test [8], in test [13] and in [19] were 0.13, 1.13 and less than 0.16, respectively. Also, the “fold change (FC)” value in [9] and in test [11] was 4 in each case. Further, the FIC in [10] is on record as less than 0.031; in [14], 0.063. Moreover, the survival at 75 mg/kg in [12] was 75%. Also, the survival at 100 mg/kg in test [15] worked out at 45%. Also, the outcome in test [16] was Active.
`CO[C@H]1/C=C/O[C@@]2(C)Oc3c(C)c(O)c4c(O)c(c(/C=N/N5CCN(Cc6cn(CCCCCCCCCCCCO[C@@H]7[C@@H](O[C@H]8O[C@H](CO)[C@@H](O)[C@H](N)[C@H]8O)[C@H](N)C[C@H](N)[C@H]7O[C@H]7O[C@H](CN)[C@@H](O)C[C@H]7N)nn6)CC5)c(O)c4c3C2=O)NC(=O)/C(C)=C\C=C\[C@H](C)[C@H](O)[C@@H](C)[C@@H](O)[C@@H](C)[C@H](OC(C)=O)[C@@H]1C.O=C(O)C(F)(F)F.O=C(O)C(F)(F)F.O=C(O)C(F)(F)F.O=C(O)C(F)(F)F.O=C(O)C(F)(F)F`: the “fold change (FC)” value in [20] was 4; in test [21] it was 4; in test [22], 4; in test [23], 0; in test [27], 4; in test [28], 4. Further, the MIC was 2 µg/mL in [24], 1 µg/mL in [25] and 512 µg/mL in [26].

The record behind these values is ChEMBL document CHEMBL4715829, “Heterodimeric Rifampicin-Tobramycin conjugates break intrinsic resistance of Pseudomonas aeruginosa to doxycycline and chloramphenicol in vitro and in a Galleria mellonella in vivo model” (Eur J Med Chem, 2019).
